Measurements as given in PubChem BioAssay (NCI).
“And” between values parts separate entries of the source, which are not always exact repeats. Equal entries are not always repeated.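 Assay format: 96-well plates, 48-hour exposure. Abbreviation: GI50, concentration required for 50% inhibition of growth. TGI is the concentration that stops growth completely.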

Assays:
Assay in all cases: growth of human tumour cells (NCI), 48 h
OVCAR-8 ovarian = system: OVCAR-8 ovarian
PC-3 prostate = system: PC-3 prostate
NCI-H460 lung = system: NCI-H460 lung
OVCAR-5 ovarian = system: OVCAR-5 ovarian
NCI-H23 lung = system: NCI-H23 lung
NCI-H522 lung = system: NCI-H522 lung
SW-620 colon = system: SW-620 colon
MOLT-4 leukemia = system: MOLT-4 leukemia
KM12 colon = system: KM12 colon
OVCAR-4 ovarian = system: OVCAR-4 ovarian
HT29 colon = system: HT29 colon
OVCAR-3 ovarian = system: OVCAR-3 ovarian
K-562 leukemia = system: K-562 leukemia
SN12C renal = system: SN12C renal
RPMI-8226 leukemia = system: RPMI-8226 leukemia
BT-549 breast = system: BT-549 breast
HCT-15 colon = system: HCT-15 colon
EKVX NSCLC = system: EKVX NSCLC
CCRF-CEM leukemia = system: CCRF-CEM leukemia
SK-MEL-5 melanoma = system: SK-MEL-5 melanoma
DU-145 prostate = system: DU-145 prostate
A549 NSCLC = system: A549 NSCLC
786-0 renal = system: 786-0 renal
SNB-75 CNS = system: SNB-75 CNS
TK-10 renal = system: TK-10 renal
T-47D breast = system: T-47D breast
SF-539 CNS = system: SF-539 CNS
A498 renal = system: A498 renal
UO-31 renal = system: UO-31 renal

For C[C@]12CC[C@H](OC3OC(O)C(O)C(O)C3O)C=C1CCC1C2CC[C@]2(C)[C@@H](c3ccc(=O)oc3)CC[C@]12O (some centres not stated), the GI50 (OVCAR-8 ovarian) was 3.67 nM and 5 nM, the TGI (OVCAR-8 ovarian) was 16.8 nM and 7.2 nM and the GI50 (PC-3 prostate) was 3.84 nM. The TGI (PC-3 prostate) was 22.1 nM, the GI50 (NCI-H460 lung) was 2.42 nM and 5 nM and the TGI (NCI-H460 lung) was 6.33 nM and 5.12 nM. The GI50 (OVCAR-5 ovarian) was 8.01 nM and 5 nM, the TGI (OVCAR-5 ovarian) was 25.2 nM and 11.9 nM and the GI50 (NCI-H23 lung) was 2.93 nM. It also gave a TGI (NCI-H23 lung) of 11.4 nM, a GI50 (NCI-H522 lung) of 2.86 nM and a TGI (NCI-H522 lung) of 11.4 nM. For the same compound, the GI50 (SW-620 colon) was 4.45 nM and 5 nM, the TGI (SW-620 colon) was 25.4 nM and 15.4 nM and the GI50 (MOLT-4 leukemia) was 2.34 nM. For the same compound, the TGI (MOLT-4 leukemia) was 5.3 nM, the GI50 (KM12 colon) was 4.87 nM and 5 nM and the TGI (KM12 colon) was 25.8 nM and 26.6 nM. For the same compound, the GI50 (OVCAR-4 ovarian) was 2.98 nM, the TGI (OVCAR-4 ovarian) was 16.7 nM and the GI50 (HT29 colon) was 4.52 nM and 5 nM. The TGI (HT29 colon) was 17.6 nM and 9.16 nM, the GI50 (OVCAR-3 ovarian) was 3.8 nM and 5 nM and the TGI (OVCAR-3 ovarian) was 12.1 nM and 6.38 nM. For the same compound, the GI50 (K-562 leukemia) was 4.06 nM, the TGI (K-562 leukemia) was 18.1 nM and the GI50 (SN12C renal) was 3.04 nM and 5 nM. The TGI (SN12C renal) was 17 nM and 9.65 nM, the GI50 (RPMI-8226 leukemia) was 4.39 nM and the TGI (RPMI-8226 leukemia) was 74.8 nM. The GI50 (BT-549 breast) was 3.59 nM and 5 nM, the TGI (BT-549 breast) was 11.8 nM and 6.59 nM and the GI50 (HCT-15 colon) was 4.65 nM and 5 nM. For the same compound, the TGI (HCT-15 colon) was 21.8 nM and 15.5 nM, the GI50 (EKVX NSCLC) was 2.86 nM and 5 nM and the TGI (EKVX NSCLC) was 9.07 nM and 5.58 nM. The GI50 (CCRF-CEM leukemia) was 5 nM, the TGI (CCRF-CEM leukemia) was 50000 nM and the GI50 (SK-MEL-5 melanoma) was 1.96 nM and 5 nM. The TGI (SK-MEL-5 melanoma) was 4.28 nM and 6.32 nM, the GI50 (DU-145 prostate) was 2.77 nM and the TGI (DU-145 prostate) was 6.98 nM. For the same compound, the GI50 (A549 NSCLC) was 1.78 nM, the TGI (A549 NSCLC) was 3.58 nM and the GI50 (786-0 renal) was 2.59 nM and 5 nM. For the same compound, the TGI (786-0 renal) was 7 nM and 5.73 nM, the GI50 (SNB-75 CNS) was 3.21 nM and 5 nM and the TGI (SNB-75 CNS) was 15.7 nM and 6.16 nM. For the same compound, the GI50 (TK-10 renal) was 5.08 nM, the TGI (TK-10 renal) was 42.2 nM and the GI50 (T-47D breast) was 4.04 nM and 5 nM. For the same compound, the TGI (T-47D breast) was 19.8 nM and 16.6 nM, the GI50 (SF-539 CNS) was 2.62 nM and 5 nM and the TGI (SF-539 CNS) was 6.21 nM and 5.68 nM. The GI50 (A498 renal) was 3.45 nM and 5 nM, the TGI (A498 renal) was 48.3 nM and 23.7 nM and the GI50 (UO-31 renal) was 4.64 nM and 5 nM.
